Laboratory results: ChEMBL document CHEMBL1201862, “PubChem BioAssay data set” (2004)
Calls of active or inactive are those of the source. Cut-off read from the data, not from the text of the source, for most assays here: actives have a measured EC50 and inactives only a lower limit.

Legend:
cells [1] = format: functional, cell-based
[2] = target: T1, Zinc finger protein mex-5 (Caenorhabditis elegans, UniProt Q9XUB2); assay: potency of MEX-5 RNA-binding blockers – biochemical, C. elegans, fluorescence polarization, dose response (AID 1960)
T1 sequence (Q9XUB2 whole entry): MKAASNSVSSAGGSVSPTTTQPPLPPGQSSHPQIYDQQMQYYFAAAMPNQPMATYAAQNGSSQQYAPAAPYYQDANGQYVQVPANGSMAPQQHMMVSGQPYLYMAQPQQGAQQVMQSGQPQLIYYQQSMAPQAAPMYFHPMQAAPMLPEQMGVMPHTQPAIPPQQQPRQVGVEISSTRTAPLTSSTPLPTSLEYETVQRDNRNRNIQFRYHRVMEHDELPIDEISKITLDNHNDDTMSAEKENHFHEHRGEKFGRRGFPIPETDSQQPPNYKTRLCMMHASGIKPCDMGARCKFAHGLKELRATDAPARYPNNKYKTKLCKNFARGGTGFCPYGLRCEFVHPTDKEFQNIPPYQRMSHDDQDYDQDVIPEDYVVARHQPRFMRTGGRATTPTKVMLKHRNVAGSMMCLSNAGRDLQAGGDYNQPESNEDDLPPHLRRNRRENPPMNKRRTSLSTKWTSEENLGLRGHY

[3] = target: T2, RNA-binding protein pos-1 (Caenorhabditis elegans, UniProt G5EF15); assay: disruptors of C. elegans POS-1 RNA interaction – biochemical, fluorescence polarization, dose response (AID 1964);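 note: purified POS-1 fused to maltose binding protein made in E. coli; potency of compounds blocking POS-1 binding to fluorescent RNA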
T2 sequence (G5EF15 whole entry): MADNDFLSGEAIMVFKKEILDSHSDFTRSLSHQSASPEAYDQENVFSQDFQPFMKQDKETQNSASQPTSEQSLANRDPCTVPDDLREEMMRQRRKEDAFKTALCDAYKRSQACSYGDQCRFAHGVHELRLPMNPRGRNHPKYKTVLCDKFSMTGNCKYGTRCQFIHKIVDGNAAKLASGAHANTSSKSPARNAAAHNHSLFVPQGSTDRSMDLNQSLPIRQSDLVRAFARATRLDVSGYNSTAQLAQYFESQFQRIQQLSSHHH

cells [4] = format: functional, cell-based; remark: listed apart in the source
[5] = target: Induced myeloid leukemia cell differentiation protein Mcl-1 (Homo sapiens, UniProt Q07820); format: functional
Sequence of Induced myeloid leukemia cell differentiation protein Mcl-1 (Q07820 whole entry): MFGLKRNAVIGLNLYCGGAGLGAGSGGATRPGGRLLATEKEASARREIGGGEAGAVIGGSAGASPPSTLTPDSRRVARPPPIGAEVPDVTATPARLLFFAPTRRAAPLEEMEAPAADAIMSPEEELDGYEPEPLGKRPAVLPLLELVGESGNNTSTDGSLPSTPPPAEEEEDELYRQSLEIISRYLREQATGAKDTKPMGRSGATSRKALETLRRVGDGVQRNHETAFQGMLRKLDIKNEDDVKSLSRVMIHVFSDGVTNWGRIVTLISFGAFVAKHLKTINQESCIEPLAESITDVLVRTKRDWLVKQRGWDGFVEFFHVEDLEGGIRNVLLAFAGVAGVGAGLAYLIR

[6] = target: T3, Heat shock factor protein 1 (Mus musculus, UniProt P38532); assay: enhancement of HSF1-driven luciferase signal – cell-based, NIH3T3, luminescence, dose retest, confirmation (AID 435004); format: functional;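 note: stress induced by proteasome inhibitor MG132 added 30 min after compound; luciferase reporter driven by HSF1 response element in NIH3T3 cells; actives raise luminescence as potentiators of the MG132 stress response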
T3 sequence (P38532 whole entry): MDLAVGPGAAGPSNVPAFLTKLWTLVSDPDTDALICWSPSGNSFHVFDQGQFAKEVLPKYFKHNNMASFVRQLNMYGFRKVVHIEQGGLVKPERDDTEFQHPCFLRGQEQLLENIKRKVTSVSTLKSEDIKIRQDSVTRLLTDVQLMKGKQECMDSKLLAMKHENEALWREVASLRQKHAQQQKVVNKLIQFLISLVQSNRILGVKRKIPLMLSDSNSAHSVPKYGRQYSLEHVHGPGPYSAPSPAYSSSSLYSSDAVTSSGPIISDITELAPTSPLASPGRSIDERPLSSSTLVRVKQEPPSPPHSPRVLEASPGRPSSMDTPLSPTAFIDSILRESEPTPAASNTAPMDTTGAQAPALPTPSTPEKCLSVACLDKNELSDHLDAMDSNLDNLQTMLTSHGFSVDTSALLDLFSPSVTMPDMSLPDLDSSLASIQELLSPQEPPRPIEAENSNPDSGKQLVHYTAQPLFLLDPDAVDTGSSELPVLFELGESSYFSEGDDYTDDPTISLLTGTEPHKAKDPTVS

[7] = Luminescence Cell-Based Dose Confirmation HTS to Identify Inhibitors of Platelet Dense Granule Release. [Related pubchem assays: 1663 (Primary HTS), 1678 (Summary of Project)]; format: functional
[8] = target: Luciferin 4-monooxygenase (Photinus pyralis, UniProt P08659); assay: inhibition of purified Photinus pyralis luciferase – biochemical, luminescence, dose response (AID 1891)
Sequence of Luciferin 4-monooxygenase (P08659 whole entry): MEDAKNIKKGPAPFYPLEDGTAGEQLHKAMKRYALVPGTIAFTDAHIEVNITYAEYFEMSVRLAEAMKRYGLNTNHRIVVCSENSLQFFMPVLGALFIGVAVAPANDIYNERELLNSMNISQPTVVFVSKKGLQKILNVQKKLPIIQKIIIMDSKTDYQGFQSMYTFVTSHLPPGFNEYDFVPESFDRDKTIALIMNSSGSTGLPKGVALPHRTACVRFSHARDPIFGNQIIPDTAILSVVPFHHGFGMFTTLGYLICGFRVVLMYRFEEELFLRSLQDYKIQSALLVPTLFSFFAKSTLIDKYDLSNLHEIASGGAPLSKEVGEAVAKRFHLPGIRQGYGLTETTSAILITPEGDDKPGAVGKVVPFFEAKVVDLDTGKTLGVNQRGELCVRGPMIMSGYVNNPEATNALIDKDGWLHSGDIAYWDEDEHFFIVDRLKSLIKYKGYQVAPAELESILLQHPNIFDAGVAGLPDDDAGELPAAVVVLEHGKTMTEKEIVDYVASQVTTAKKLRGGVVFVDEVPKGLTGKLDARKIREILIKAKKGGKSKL

Vero = assay: cells; format: functional; settings: Chlorocebus sabaeus
[9] = tested on: Streptococcus sp. 'group A'; assay: Streptococcus pyogenes SK(-)GAS viability under kanamycin – luminescence, BacTiterGlo, confirmation, counter-screen for streptokinase expression inhibitor project, dose response (AID 1900); format: functional, organism-based
Streptococcus = assay: GAS UMAA2166 growth inhibition – luminescence, BacTiterGlo, counter-screen for streptokinase expression inhibitor project, dose response (AID 1915); format: functional, organism-based;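 note: potency for reduction of bacterial viability or growth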
[10] = target: T4, Carboxy-terminal domain RNA polymerase II polypeptide A small phosphatase 1 (Homo sapiens, UniProt Q9GZU7); assay: CTDSP1 inhibitors, concentration-response, biochemical, absorbance readout, ultra-high-throughput screen actives (AID 540297); format: functional
T4 sequence (Q9GZU7 whole entry): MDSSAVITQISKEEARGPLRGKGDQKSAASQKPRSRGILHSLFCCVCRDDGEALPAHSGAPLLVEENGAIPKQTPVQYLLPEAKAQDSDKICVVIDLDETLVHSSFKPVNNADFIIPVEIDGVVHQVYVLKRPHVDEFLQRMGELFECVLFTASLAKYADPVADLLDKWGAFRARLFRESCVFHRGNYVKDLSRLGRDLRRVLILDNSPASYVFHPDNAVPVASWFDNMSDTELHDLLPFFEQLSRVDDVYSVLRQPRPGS

[11] = target: T5, Polyadenylate-binding protein 1 (Homo sapiens, UniProt P11940); assay: MLLE binding blockers, Cy5 peptide tracer – biochemical, fluorescence polarization, Cy5-PAM2 peptide, secondary, miRNA deadenylation inhibitor project, dose response (AID 602260); format: functional; settings: read-out: IC50_Mean
T5 sequence (P11940 whole entry, the tested form may be a part): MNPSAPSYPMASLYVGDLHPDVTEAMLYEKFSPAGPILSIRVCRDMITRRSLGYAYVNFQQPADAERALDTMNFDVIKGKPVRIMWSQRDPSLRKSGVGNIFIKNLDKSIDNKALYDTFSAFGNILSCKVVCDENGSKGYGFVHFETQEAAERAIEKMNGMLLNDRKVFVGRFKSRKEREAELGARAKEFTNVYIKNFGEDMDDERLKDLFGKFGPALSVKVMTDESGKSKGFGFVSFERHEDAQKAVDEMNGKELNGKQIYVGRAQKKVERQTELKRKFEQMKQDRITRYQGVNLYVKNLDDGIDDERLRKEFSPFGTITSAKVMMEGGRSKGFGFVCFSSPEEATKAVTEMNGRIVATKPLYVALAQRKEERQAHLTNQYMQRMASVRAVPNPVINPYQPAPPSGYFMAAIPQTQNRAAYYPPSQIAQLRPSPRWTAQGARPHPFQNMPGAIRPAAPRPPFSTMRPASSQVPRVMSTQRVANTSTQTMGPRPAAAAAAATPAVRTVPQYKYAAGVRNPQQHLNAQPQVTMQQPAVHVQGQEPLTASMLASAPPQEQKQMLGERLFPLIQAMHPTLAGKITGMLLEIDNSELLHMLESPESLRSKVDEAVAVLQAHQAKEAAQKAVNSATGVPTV

[12] = target: T5, Polyadenylate-binding protein 1; assay: MLLE domain peptide-binding blockers, IC50 – biochemical, fluorescence polarization, FITC-PAM2 peptide, dose response (AID 602259); format: functional; settings: read-out: IC50_Mean
[13] = target: T3, Heat shock factor protein 1; assay: decrease of HSF1-responsive luciferase luminescence – cell-based, NIH3T3, dose retest, confirmation (AID 2382); format: functional;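 note: NIH3T3 fibroblasts with HSF1-driven luciferase reporter stressed by proteasome inhibitor MG132; luminescence from HSF1-driven luciferase expression after 8 hours of MG132 stress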
[14] = viability of HCT116 lacking mutant beta-catenin – cell-based, human colon tumor, dose response (AID 1045); format: functional;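 note: HCT116 colon tumor cells with beta catenin knocked out; cells exposed to compound for 60 hours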
[15] = viability of PTEN-deleted HCT116 cells – cell-based, HCT116 PTEN knockout, dose response (AID 1047); format: functional;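 note: HCT116 colon tumor cells with PTEN knocked out; cells exposed to compound for 60 hours before readout; potency for loss of cell viability measured by luminescence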
[16] = NIH3T3 cell viability loss – ATP luminescence, mouse fibroblasts, counter-screen, dose response (AID 2010); format: functional, cell-based;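 note: cells exposed to compound for about 90 hours before reading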
[17] = target: T6, DNA repair protein RAD52 homolog (Homo sapiens, UniProt P43351); format: functional, biochemical
T6 sequence (P43351 whole entry): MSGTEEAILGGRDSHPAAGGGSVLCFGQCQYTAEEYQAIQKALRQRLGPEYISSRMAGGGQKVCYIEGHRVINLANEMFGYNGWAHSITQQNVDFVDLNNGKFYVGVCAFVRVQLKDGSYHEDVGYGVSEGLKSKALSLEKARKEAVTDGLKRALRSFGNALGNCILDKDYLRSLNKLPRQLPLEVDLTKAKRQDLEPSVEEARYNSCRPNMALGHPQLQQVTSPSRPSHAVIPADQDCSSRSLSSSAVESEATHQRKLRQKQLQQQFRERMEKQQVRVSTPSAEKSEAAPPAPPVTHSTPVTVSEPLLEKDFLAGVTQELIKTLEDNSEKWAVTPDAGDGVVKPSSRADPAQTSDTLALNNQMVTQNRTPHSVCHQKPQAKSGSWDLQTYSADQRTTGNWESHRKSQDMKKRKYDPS

[18] = Trypanosoma cruzi growth suppression in host cells – NIH3T3 host cells, beta-gal luminescence, confirmation (AID 2044); format: functional, cell-based;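 note: intracellular parasites grown in NIH/3T3 mouse fibroblasts as host cells; luminescent beta-galactosidase reporter signal from transgenic T. cruzi replicating inside host cells; inhibitors lower the luminescence signal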

## CCOc1ccc(NC(=O)COc2ccccc2)c([N+](=O)[O-])c1
Cells [1]
  EC50: > 350 µM (not active)
[2]
  EC50: > 300 µM (not active)
[3]
  EC50: > 300 µM (not active)
Cells [4]
  EC50: 11.9 µM (active)

## COc1ccc(C(=O)NC2(C(F)(F)F)C(=O)N(Cc3ccco3)C3=C2C(=O)CC(C)(C)C3)cc1OC (centres undefined)
[2]
  EC50: > 300 µM (not active)
[3]
  EC50: > 300 µM (not active)

## CN(C)c1ccc(NC(=O)CCCc2ccccc2)cc1
[5]
  IC50: 4.98 µM (not active)

## Cc1ccc(C(=O)Oc2oc(-c3ccccc3)nc2/C=N/c2ccc(N(C)C)cc2)cc1
[2]
  EC50: > 300 µM (inconclusive)
[6]
  EC50: 6.88 µM (active)
[3]
  EC50: > 300 µM (not active)

## Cc1cccc(/N=C/c2sc3ccccc3c2O)n1
[7]
  EC50: 22.1 µM (active)
[5]
  IC50: 1.57 µM (active)
[8]
  EC50: 1.02 µM (active)

## COc1ccc(C(=O)NNC(=S)NC(=O)c2ccc(F)cc2)cc1Br
Vero
  CC50: > 25 µM (active)
[9]
  EC50: 0.378 µM (active)
Streptococcus
  EC50: 1.73 µM (active)

## O=C(COc1ccc2ccccc2c1)NNC(=O)c1ccc([N+](=O)[O-])cc1
[10]
  IC50: 6.67 µM (active)
[5]
  IC50: 7.07 µM (active)

## Cc1cc2cc(CNC(=O)COc3ccccc3)ccc2n1C
[11]
  IC50: > 66 µM (inactive)
[12]
  IC50: > 66 µM (inactive)

## COc1cc(NC(=O)CSc2nnc3ccc(-c4ccncc4)nn23)cc(OC)c1
[2]
  EC50: > 300 µM (not active)
[3]
  EC50: > 300 µM (not active)

## CC(=O)c1ccccc1-c1csc2ncnc(Sc3nnnn3C)c12
Vero
  CC50: > 25 µM (active)

## Cc1ccc(S(=O)(=O)Nc2ccccc2F)cc1C(=O)NNC(=O)c1csc(N2CCOCC2)n1
[2]
  EC50: 23.3 µM (active)
[3]
  EC50: 30.8 µM (active)

## CSc1nc2c(=S)[nH]c(=S)[nH]c2s1
[11]
  IC50: > 66 µM (inactive)
[12]
  IC50: > 66 µM (inactive)

## CC(C)c1nc(SCC(=O)c2ccc(F)cc2)c2ccccc2n1
[11]
  IC50: > 66 µM (inactive)
[13]
  EC50: > 195 µM (not active)
[12]
  IC50: > 66 µM (inactive)

## CCOC1(OCC)N=C(N)C2(C#N)C(c3ccc(NC(C)=O)cc3)C12C#N (centres undefined)
[2]
  EC50: 79.4 µM (active)
[3]
  EC50: 155 µM (active)

## Cc1cccc(OCC(O)Cn2c(=N)n(CCN3CCCCC3)c3ccccc32)c1 (centres undefined)
[14]
  EC50: 6.6 µM (active)
[15]
  EC50: 7.39 µM (active)
Vero
  CC50: 15 µM (active)

## O=C(O)CCN1C(=O)/C(=C\c2ccc(-c3nc4ccccc4s3)o2)SC1=S
[5]
  IC50: 1.53 µM (active)

## CN1CCN(S(=O)(=O)c2ccc(NC(=S)NC(=O)C(C)(C)C)cc2)CC1
[11]
  IC50: > 66 µM (inactive)
[12]
  IC50: > 66 µM (inactive)

## COc1cc2c(cc1OC)CN(c1nc(CN3CCCC3)nc3sc(C)c(C)c13)CC2
[16]
  EC50: > 60 µM (not active)
[17]
  AC50: 11.5 µM (active)
[18]
  EC50: 0.278 µM (active)

## CCOC(=O)c1ccccc1NC(=O)c1cn(-c2ccc(OC)cc2)c(=O)c2ccccc12
Vero
  CC50: > 25 µM (active)

## Cc1c(N=C2Nc3cccc4cccc2c34)c(=O)n(-c2ccccc2)n1C
[2]
  EC50: > 300 µM (not active)
[3]
  EC50: > 300 µM (not active)
